The values below are quoted from earlier work in patent US20090264528A1, “SERINE PALMITOYLCOA TRANSFERASE (SPT) INHIBITION BY MYRIOCIN OR GENETIC DEFICIENCY DECREASES CHOLESTEROL ABSORPTION” (The Research Foundation of State University of New York, priority 2008, published 2009).

For the data set the following is noted: apoE KO mice; cited from earlier work.

With `CCCCCCCCc1ccc(CCC(N)(CO)CO)cc1` [FTY720], the plasma cholesterol levels entry is listed as “increases”.
